Measurements published in patent publication US20230293526A1, “METHOD FOR TREATING CANCER WITH A REVERSE TRANSCRIPTASE INHIBITOR” (PrimeFour Therapeutics, Inc., priority 2020, published 2023).

Columns and labels:
cancer cell lines = test: Cancer cell proliferation activity of representative nucleosides, CellTiterGlo 72 h (Example 7, Tables 8 and 9); assay type: cell-based
How it was run: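 Cancer cell lines seeded and incubated at 37° C overnight, then exposed to nucleosides (final DMSO 0.1%) for 72 h at 37° C with 5% or 10% CO2. Viability read by CellTiterGlo luminescence and normalized to 0.1% DMSO (100%) and 10 μM staurosporine (0%) controls.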

human LINE-1 = test: Human LINE-1 (L1) retrotransposition dual-luciferase reporter assay in HeLa cells; assay type: cell-based; conditions: Homo sapiens, HeLa, 72 h, read-out: Human LINE-1 IC50 (Human L1 activity inhibition)
How it was run: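 HeLa cells transfected with dual-luciferase L1 plasmid pYX017 (100 ng/well), dosed immediately after with serially diluted compounds (0.2% DMSO final) in triplicate and incubated 72 h at 37 °C. Relative L1 activity = Firefly/Renilla ×10,000; IC50 from logistic non-linear regression.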

C#C[C@]1(CO)O[C@@H](n2cnc3c(N)nc(F)nc32)C[C@@H]1O [Islatravir (EFdA), Islatravir, reference compound]
IC50 (cancer cell lines; 72 h, 5637, 72 h (Table 9)): 2.57 µM
IC50 (cancer cell lines; 72 h, CLS439, 72 h (Table 9)): > 50 µM
IC50 (cancer cell lines; 72 h, HS729, 72 h (Table 9)): 4.24 µM
IC50 (cancer cell lines; 72 h, J82, 72 h (Table 9)): 5.43 µM
IC50 (cancer cell lines; 72 h, JAR, 72 h (Table 9)): 5.41 µM
IC50 (cancer cell lines; 72 h, MT3, 72 h (Table 9)): 2.64 µM
IC50 (cancer cell lines; 72 h, PC3, 72 h (Table 9)): 3.12 µM
IC50 (cancer cell lines; 72 h, RD, 72 h (Table 9)): 3.3 µM
IC50 (cancer cell lines; 72 h, T24, 72 h (Table 9)): 2.68 µM
IC50 (cancer cell lines; Homo sapiens, 22Rv1, 72 h, 22RV1, 72 h (Table 9)): > 50 µM
IC50 (cancer cell lines; Homo sapiens, 786-0, 72 h, 786O, 72 h (Table 9)): 3.31 µM
IC50 (cancer cell lines; Homo sapiens, A204, 72 h, A204, 72 h (Table 9)): 1.46 µM
IC50 (cancer cell lines; Homo sapiens, A549, 72 h, A549, 72 h (Table 9)): 2.98 µM
IC50 (cancer cell lines; Homo sapiens, A673, 72 h, A673, 72 h (Table 9)): 4.57 µM
IC50 (cancer cell lines; Homo sapiens, A2780, 72 h, A2780, 72 h (Table 9)): 4.93 µM
IC50 (cancer cell lines; Homo sapiens, A-375, 72 h, A375, 72 h (Table 9)): 2.69 µM
IC50 (cancer cell lines; Homo sapiens, A-431, 72 h, A431, 72 h (Table 9)): 2.87 µM
IC50 (cancer cell lines; Homo sapiens, ACHN, 72 h, 72 h (Table 9)): 2.48 µM
IC50 (cancer cell lines; Homo sapiens, ASPC1, 72 h, ASPC1, 72 h (Table 9)): 4.97 µM
IC50 (cancer cell lines; Homo sapiens, BT-20, 72 h, BT20, 72 h (Table 9)): 2.79 µM
IC50 (cancer cell lines; Homo sapiens, BXPC-3, 72 h, BXPC3, 72 h (Table 9)): 2.77 µM
IC50 (cancer cell lines; Homo sapiens, C-33-A, 72 h, C33A, 72 h (Table 9)): 2.65 µM
IC50 (cancer cell lines; Homo sapiens, CAKI-1, 72 h, CAKI1, 72 h (Table 9)): 0.69 µM
IC50 (cancer cell lines; Homo sapiens, COLO 205, 72 h, COLO205, 72 h (Table 9)): 4.98 µM
IC50 (cancer cell lines; Homo sapiens, COLO-678, 72 h, COLO678, 72 h (Table 9)): 3.11 µM
IC50 (cancer cell lines; Homo sapiens, Ca-Ski, 72 h, CASKI, 72 h (Table 9)): 5.31 µM
IC50 (cancer cell lines; Homo sapiens, Caco-2, 72 h, CACO2, 72 h (Table 9)): > 50 µM
IC50 (cancer cell lines; Homo sapiens, Calu-6, 72 h, CALU6, 72 h (Table 9)): 5.3 µM
IC50 (cancer cell lines; Homo sapiens, DLD-1, 72 h, DLD1, 72 h (Table 9)): > 50 µM
IC50 (cancer cell lines; Homo sapiens, DU-145, 72 h, DU145, 72 h (Table 9)): 2.53 µM
IC50 (cancer cell lines; Homo sapiens, EFO-21, 72 h, EFO21, 72 h (Table 9)): 4.62 µM
IC50 (cancer cell lines; Homo sapiens, EJ-28, 72 h, EJ28, 72 h (Table 9)): 5.71 µM
IC50 (cancer cell lines; Homo sapiens, Granta-519, 72 h, GRANTA-519, 72 h (Table 9)): 1.68 µM
IC50 (cancer cell lines; Homo sapiens, HCT-15, 72 h, HCT15, 72 h (Table 9)): 5.9 µM
IC50 (cancer cell lines; Homo sapiens, HCT-116, 72 h, HCT116, 72 h (Table 9)): 4.69 µM
IC50 (cancer cell lines; Homo sapiens, HEK293, 72 h, HEK293, 72 h (Table 9)): 4.16 µM
IC50 (cancer cell lines; Homo sapiens, HL-60, 72 h, HL-60, 72 h (Table 9)): 3.49 µM
IC50 (cancer cell lines; Homo sapiens, HT-29, 72 h, HT29, 72 h (Table 9)): 4.63 µM
IC50 (cancer cell lines; Homo sapiens, HT-1080, 72 h, HT1080, 72 h (Table 9)): 3.19 µM
IC50 (cancer cell lines; Homo sapiens, HeLa, 72 h, 72 h (Table 9)): 2.98 µM
IC50 (cancer cell lines; Homo sapiens, HepG2, 72 h, HEPG2, 72 h (Table 9)): 3.14 µM
IC50 (cancer cell lines; Homo sapiens, Hs-578T, 72 h, HS578T, 72 h (Table 9)): 2.94 µM
IC50 (cancer cell lines; Homo sapiens, IGROV-1, 72 h, IGROV1, 72 h (Table 9)): 3.03 µM
IC50 (cancer cell lines; Homo sapiens, IMR-90, 72 h, IMR90, 72 h (Table 9)): 2.46 µM
IC50 (cancer cell lines; Homo sapiens, JEG-3, 72 h, JEG3, 72 h (Table 9)): 3.95 µM
IC50 (cancer cell lines; Homo sapiens, JIMT-1, 72 h, JIMT1, 72 h (Table 9)): 1.58 µM
IC50 (cancer cell lines; Homo sapiens, K562, 72 h, K-562, 72 h (Table 9)): 4.46 µM
IC50 (cancer cell lines; Homo sapiens, Kasumi 1, 72 h, KASUMI-1, 72 h (Table 9)): 0.96 µM
IC50 (cancer cell lines; Homo sapiens, L-363, 72 h, L-363, 72 h (Table 9)): 3.21 µM
IC50 (cancer cell lines; Homo sapiens, LoVo, 72 h, 72 h (Table 9)): 2.79 µM
IC50 (cancer cell lines; Homo sapiens, MCF7, 72 h, MCF7, 72 h (Table 9)): > 50 µM
IC50 (cancer cell lines; Homo sapiens, MDA-MB-231, 72 h, MDAMB231, 72 h (Table 9)): 2.56 µM
IC50 (cancer cell lines; Homo sapiens, MDA-MB-435, 72 h, MDAMB435, 72 h (Table 9)): > 50 µM
IC50 (cancer cell lines; Homo sapiens, MDA-MB-436, 72 h, MDAMB436, 72 h (Table 9)): 3.59 µM
IC50 (cancer cell lines; Homo sapiens, MDA-MB-468, 72 h, MDAMB468, 72 h (Table 9)): 4 µM
IC50 (cancer cell lines; Homo sapiens, MG-63, 72 h, MG63, 72 h (Table 9)): > 50 µM
IC50 (cancer cell lines; Homo sapiens, MHH-ES-1, 72 h, MHHES1, 72 h (Table 9)): 3.51 µM
IC50 (cancer cell lines; Homo sapiens, MIA PaCa-2, 72 h, MIAPACA2, 72 h (Table 9)): > 50 µM
IC50 (cancer cell lines; Homo sapiens, MINO, 72 h, 72 h (Table 9)): 1.34 µM
IC50 (cancer cell lines; Homo sapiens, MV4-11, 72 h, MV4-11, 72 h (Table 9)): 2.39 µM
IC50 (cancer cell lines; Homo sapiens, NCI-H23, 72 h, NCI-H23, 72 h (Table 9)): 2.96 µM
IC50 (cancer cell lines; Homo sapiens, NCI-H82, 72 h, NCIH82, 72 h (Table 9)): 2.73 µM
IC50 (cancer cell lines; Homo sapiens, NCI-H292, 72 h, NCIH292, 72 h (Table 9)): 3.68 µM
IC50 (cancer cell lines; Homo sapiens, NCI-H460, 72 h, NCIH460, 72 h (Table 9)): 3.31 µM
IC50 (cancer cell lines; Homo sapiens, OVCAR-3, 72 h, OVCAR3, 72 h (Table 9)): 4.15 µM
IC50 (cancer cell lines; Homo sapiens, OVCAR-4, 72 h, OVCAR4, 72 h (Table 9)): 3.1 µM
IC50 (cancer cell lines; Homo sapiens, PANC-1, 72 h, PANC1, 72 h (Table 9)): > 50 µM
IC50 (cancer cell lines; Homo sapiens, PLC-PRF-5, 72 h, PLCPRF5, 72 h (Table 9)): > 50 µM
IC50 (cancer cell lines; Homo sapiens, Panc1005, 72 h, PANC1005, 72 h (Table 9)): 3.87 µM
IC50 (cancer cell lines; Homo sapiens, Ramos, 72 h, 72 h (Table 9)): 1.88 µM
IC50 (cancer cell lines; Homo sapiens, SAOS-2, 72 h, SAOS2, 72 h (Table 9)): 1.65 µM
IC50 (cancer cell lines; Homo sapiens, SF-268, 72 h, SF268, 72 h (Table 9)): > 50 µM
IC50 (cancer cell lines; Homo sapiens, SF-295, 72 h, SF295, 72 h (Table 9)): 2.91 µM
IC50 (cancer cell lines; Homo sapiens, SK-BR-3, 72 h, SKBR3, 72 h (Table 9)): 1.76 µM
IC50 (cancer cell lines; Homo sapiens, SK-HEP1, 72 h, SKHEP1, 72 h (Table 9)): 2.66 µM
IC50 (cancer cell lines; Homo sapiens, SK-LMS-1, 72 h, SKLMS1, 72 h (Table 9)): 3.35 µM
IC50 (cancer cell lines; Homo sapiens, SK-MEL-5, 72 h, SKMEL5, 72 h (Table 9)): 6.02 µM
IC50 (cancer cell lines; Homo sapiens, SK-MEL-28, 72 h, SKMEL28, 72 h (Table 9)): 3.84 µM
IC50 (cancer cell lines; Homo sapiens, SK-N-AS, 72 h, SKNAS, 72 h (Table 9)): 2.98 µM
IC50 (cancer cell lines; Homo sapiens, SK-N-SH, 72 h, SKNSH, 72 h (Table 9)): 3.37 µM
IC50 (cancer cell lines; Homo sapiens, SK-OV-3, 72 h, SKOV3, 72 h (Table 9)): 3.25 µM
IC50 (cancer cell lines; Homo sapiens, SNB-75, 72 h, SNB75, 72 h (Table 9)): 3.27 µM
IC50 (cancer cell lines; Homo sapiens, SU-DHL10, 72 h, SU-DHL-10, 72 h (Table 9)): 2.6 µM
IC50 (cancer cell lines; Homo sapiens, SU-DHL-6, 72 h, SU-DHL-6, 72 h (Table 9)): 1.68 µM
IC50 (cancer cell lines; Homo sapiens, SW-620, 72 h, SW620, 72 h (Table 9)): 3.81 µM
IC50 (cancer cell lines; Homo sapiens, TE-671, 72 h, TE671, 72 h (Table 9)): > 50 µM
IC50 (cancer cell lines; Homo sapiens, THP-1, 72 h, THP-1, 72 h (Table 9)): 2.93 µM
IC50 (cancer cell lines; Homo sapiens, U2OS, 72 h, 72 h (Table 9)): 2.53 µM
IC50 (cancer cell lines; Homo sapiens, U-87 MG, 72 h, U87MG, 72 h (Table 9)): 2.75 µM
IC50 (cancer cell lines; Homo sapiens, UMUC3, 72 h, UMUC3, 72 h (Table 9)): 3.53 µM
IC50 (cancer cell lines; Homo sapiens, UO-31, 72 h, UO31, 72 h (Table 9)): 4.71 µM
IC50 (cancer cell lines; Homo sapiens, WSU-NHL, 72 h, 72 h (Table 9)): 3.17 µM
IC50 (cancer cell lines; NCI-H358M, 72 h, NCIH358M, 72 h (Table 9)): 0.73 µM
IC50 (cancer cell lines; PBMC, 72 h, 72 h (Table 9)): > 50 µM
IC50 (cancer cell lines; RD-ES, 72 h, RDES, 72 h (Table 9)): 3.01 µM
IC50 (human LINE-1): 0.0011 µM
